Test results published in PMC7020459, “Antioxidant and Enzyme Inhibitory Properties of the Polyphenolic-Rich Extract from an Ancient Apple Variety of Central Italy (Mela Rosa dei Monti Sibillini)” (Plants, 2019).

Tests used:
[1] = molecular target: T1, lipase type II from porcine pancreas (Sus scrofa, UniProt P00591); assay: lipase inhibition assay; format: biochemical; conditions: maximal inhibition reached
T1 construct: purchased Sigma-Aldrich (Madrid, Spain); host or cells: porcine pancreas
T1 sequence (P00591 1-450): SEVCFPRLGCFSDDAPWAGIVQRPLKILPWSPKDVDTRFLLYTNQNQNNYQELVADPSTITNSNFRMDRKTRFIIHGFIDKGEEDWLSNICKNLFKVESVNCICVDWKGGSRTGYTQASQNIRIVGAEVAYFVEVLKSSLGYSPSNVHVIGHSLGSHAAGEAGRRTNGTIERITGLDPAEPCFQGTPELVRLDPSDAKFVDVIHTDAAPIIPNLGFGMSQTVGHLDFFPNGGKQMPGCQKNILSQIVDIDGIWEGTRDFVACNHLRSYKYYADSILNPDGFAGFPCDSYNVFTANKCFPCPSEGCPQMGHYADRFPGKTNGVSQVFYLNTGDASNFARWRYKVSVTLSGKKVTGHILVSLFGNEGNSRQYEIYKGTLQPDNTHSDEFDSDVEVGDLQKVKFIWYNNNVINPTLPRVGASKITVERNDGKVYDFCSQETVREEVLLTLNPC
Method: The lipase inhibition assay was based on a previous protocol. […] Then, 20 µL of pNPB (10 mM in ethanol) was added to each well and incubated for another 15 min at 37 °C. Blanks and control wells were made.

[2] = DPPH free radical scavenging assay; conditions: concentration causing 50% decrease in initial DPPH concentration
Method: (§1) The in vitro antioxidant activity of the different samples was assessed through three assays by means of standard methods using a SPECTROstar Omega (BMG LABTECH GmbH, Ortenberg, Germany) microplate reader. For the preparation of the stock solution, around 10 ± 1 mg of the different samples were diluted in 1 mL of methanol in an Eppendorf. Then, 100 µL of this stocked solution was diluted with 900 µL of methanol for the analyses. All analyses were conducted at least twice.
The free radical scavenging activity was evaluated using 1, 1-diphenyl-2-picrylhydrazyl (DPPH) on microplate analytical assay, as described by Beghelli et al. and Censi et al.. […] The absorbance of the wells was measured at 517 nm with a microplate reader against a blank prepared using methanol in addition to the DPPH reagent to get rid of any inherent solvent activity.
The total radical scavenging activity was measured using 2, 2′-azino-bis (3-ethylbenzothiazoline-6-sulphonic acid) (ABTS) assay. […] The working solution was obtained by filtration and dilution with methanol of the previous mixture to give an absorbance of AU 1 at 734 nm. […] After 15 min of incubation, the absorbance of each well was determined at 734 nm. […]

[3] = ABTS radical cation decolorization assay; conditions: concentration causing 50% decrease in initial ABTS concentration
Method: as §1
The total radical scavenging activity was measured using 2, 2′-azino-bis (3-ethylbenzothiazoline-6-sulphonic acid) (ABTS) assay. The ABTS^•+ solution was freshly prepared by the oxidation of ABTS (10 mg) by MnO2 (0.75 g) in the presence of distilled water (4 mL), followed by 30 min of incubation away from light at room temperature. The working solution was obtained by filtration and dilution with methanol of the previous mixture to give an absorbance of AU 1 at 734 nm. The extract concentrations used were the same as for the DPPH assay, and 200 µL of the ABTS solution was added to the wells. After 15 min of incubation, the absorbance of each well was determined at 734 nm. Trolox (6-hydroxy-2,5,7,8-tetramethylchroman-2-carboxylic acid) was the reference compound used in both DPPH and ABTS assays. […]

For `CCCCCCCCCCC[C@@H](C[C@@H]1OC(=O)[C@H]1CCCCCC)OC(=O)[C@H](CC(C)C)NC=O` [Orlistat], the lipase inhibition reached [1] was 75%.

With `Cc1c(C)c2c(c(C)c1O)CCC(C)(C(=O)O)O2` (stereo not drawn) [Trolox, 6-hydroxy-2,5,7,8-tetramethylchroman-2-carboxylic acid] the “DPPH IC50” value [2] was 5.3 ± 1.1 µg/mL and the “ABTS IC50” value [3] was 4.7 ± 0.2 µg/mL.
